Laboratory results published in the NIST ThermoML archive (doi:10.1021/je300775u).

Experiment: xn = mol fraction of the nth substance listed
Settings: 101 kPa, Liquid; for speed of sound: Pulse-echo method; for mass density: Vibrating tube method

ClC(Cl)(Cl)Br [bromotrichloromethane] + CCCCCCC
Settings | mass density, 293.15 K [kg/m3] | mass density, 298.15 K [kg/m3] | mass density, 303.15 K [kg/m3] | mass density, 308.15 K [kg/m3] | mass density, 313.15 K [kg/m3] | speed of sound, 293.15 K [m/s] | speed of sound, 298.15 K [m/s] | speed of sound, 303.15 K [m/s] | speed of sound, 308.15 K [m/s] | speed of sound, 313.15 K [m/s]
x1 = 0.0527 | 731.54 | 727.03 | 722.5 | 717.94 | 713.35 | 1126.6 | 1105.8 | 1085.1 | 1064.5 | 1044
x1 = 0.1116 | 786.88 | 782.07 | 777.25 | 772.39 | 767.5 | 1100.3 | 1080.2 | 1060.4 | 1040.5 | 1020.7
x1 = 0.152 | 826.09 | 821.09 | 816.04 | 810.96 | 805.84 | 1083.8 | 1064.4 | 1044.9 | 1025.3 | 1005.8
x1 = 0.2038 | 878.08 | 872.78 | 867.43 | 862.07 | 856.67 | 1064.1 | 1045.2 | 1026 | 1007 | 988.3
x1 = 0.2512 | 927.29 | 921.75 | 916.16 | 910.53 | 904.88 | 1047.4 | 1028.9 | 1010.4 | 992 | 973.6
x1 = 0.2988 | 978.53 | 972.69 | 966.84 | 960.93 | 955.01 | 1031.9 | 1013.7 | 995.8 | 977.7 | 959.8
x1 = 0.3556 | 1041.97 | 1035.81 | 1029.61 | 1023.38 | 1017.12 | 1015 | 997.3 | 979.7 | 962.2 | 944.8
x1 = 0.4027 | 1096.65 | 1090.21 | 1083.75 | 1077.23 | 1070.68 | 1001.9 | 984.7 | 967.5 | 950.4 | 933.3
x1 = 0.4603 | 1166.3 | 1159.5 | 1152.66 | 1145.8 | 1138.9 | 987.5 | 970.6 | 953.9 | 937.2 | 920.7
x1 = 0.4989 | 1214.82 | 1207.8 | 1200.71 | 1193.57 | 1186.41 | 978.4 | 962 | 945.5 | 929.2 | 912.9
x1 = 0.5537 | 1286.16 | 1278.76 | 1271.34 | 1263.88 | 1256.37 | 966.7 | 950.6 | 934.7 | 918.8 | 902.9
x1 = 0.5961 | 1343.68 | 1336 | 1328.29 | 1320.53 | 1312.74 | 958.4 | 942.8 | 927.1 | 911.3 | 895.9
x1 = 0.6562 | 1428.79 | 1420.68 | 1412.54 | 1404.37 | 1396.16 | 948 | 932.8 | 917.4 | 902.2 | 887.1
x1 = 0.7088 | 1506.86 | 1498.38 | 1489.86 | 1481.3 | 1472.71 | 940.1 | 925.2 | 910.3 | 895.4 | 880.6
x1 = 0.7486 | 1568.29 | 1559.53 | 1550.71 | 1541.85 | 1532.96 | 934.8 | 920 | 905.3 | 890.7 | 876.2
x1 = 0.8001 | 1651.09 | 1641.91 | 1632.7 | 1623.44 | 1614.16 | 929 | 914.5 | 900.1 | 885.8 | 871.5
x1 = 0.8456 | 1727.53 | 1717.98 | 1708.38 | 1698.77 | 1689.12 | 924.6 | 910.4 | 896.2 | 882.2 | 868.2
x1 = 0.899 | 1821.57 | 1811.56 | 1801.52 | 1791.47 | 1781.35 | 920.6 | 906.7 | 892.8 | 879 | 865.3
x1 = 0.9521 | 1919.55 | 1909.09 | 1898.58 | 1888.06 | 1877.49 | 918 | 904.4 | 890.7 | 877.2 | 863.7
x1 = 1 | 2013.06 | 2002.14 | 1991.2 | 1980.24 | 1969.25 | 917.1 | 903.6 | 890.2 | 876.8 | 863.6
